Assay results reported in patent US20100221821A1, “METHODS AND COMPOSITIONS RELATED TO RIBOSWITCHES THAT CONTROL ALTERNATIVE SPLICING AND RNA PROCESSING” (YALE UNIVERSITY, priority 2007, published 2010).
Read-outs that look alike come from different tables or passages of the source.

Tests used:
[1] = tested on: altered TPP aptamer in THIC-III RNA from A. thaliana; test: In-line probing of TPP binding by the spliced (altered) TPP aptamer of THIC type III RNA; parameters: species or system Arabidopsis thaliana
Description: (B) In-line probing analysis of TPP binding by the spliced aptamer depicted in (A). Lanes include RNAs loaded after no reaction (NR), after partial digestion with RNase T1 (T1), or after partial digestion with alkali (^−OH). Sites 1 and 2 were quantified to establish the KD as shown in (C). (C) Plot indicating the normalized fraction of RNA spontaneously cleaved versus the concentration of TPP for sites 1 and 2 in (B).
In-line probing (Soukup and Breaker, 1999) was used to determine whether this altered aptamer retains TPP binding activity.
In-line probing assays were conducted essentially as described previously (Sudarsan et al., 2003; Winkler et al., 2002). […] For in-line probing analysis, the labeled RNA was incubated at room temperature for 40 hours in 50 mM Tris-HCl (pH 8.3 at 23° C.), 20 mM MgCl2, and 100 mM KCl in the absence or presence of varying concentrations of TPP. Cleavage products were resolved by denaturing 10% PAGE, visualized by PhosphorImager (GE Healthcare), and quantitated using ImageQuant software. The apparent KD value, reflecting the concentration of TPP needed to half-maximally modulate RNA structure, was determined by plotting the normalized fraction of RNA cleaved versus the logarithm of TPP concentration.

THIC transcripts [2] = tested on: THIC transcripts
Description: (§1) (A) qRT-PCR analysis was conducted on THIC transcripts from A. thaliana seedlings grown for 14 days on medium supplemented with 0, 0.1, and 1 mM thiamin. Total THIC transcripts and separately types I, II and III RNAs were detected using different primer combinations. cDNAs were generated using a polyT primer or random hexamers for detection of type I RNAs. Expression was normalized for each primer combination to the value measured using medium with no thiamin supplementation (open bars). Values are averages from three independent experiments and error bars represent standard deviation. (B) Northern blot analysis of THIC transcripts from the same samples described in (A). 20 μg total RNA was loaded per lane and analyzed using probes binding to the coding region of THIC, the extended 3′ UTR of types I and III RNAs, or the control transcript EIF4A1. […] (C) qRT-PCR analysis of the time-dependent effects of thiamin treatment on THIC transcripts from A. thaliana. Seedlings were grown for 14 days on thiamin free medium and subsequently sprayed with 50 μM thiamin and 0.25 mg ml^−1 Tween 80. Control seedlings were treated with a solution containing only Tween 80. Samples were collected after 4 h and 26 h and subjected to qRT-PCR analysis. Amounts of THIC transcripts were analyzed from cDNAs generated with polyT primer and normalized to the values of the control samples without application of thiamin (open bars). Values are averages from three independent experiments and error bars represent standard deviation. (D) Relative changes of the levels of THIC transcript types in wild-type (WT) and thiamin pyrophosphokinase double knockout (TPK-KO) A. thaliana plants. Seedlings were grown for 12 days on thiamin free medium and amounts of THIC transcript types were analyzed by qRT-PCR. Data were normalized to the values for the WT samples and reflect averages from three replicates, with error bars representing standard deviation.
(A) qRT-PCR analysis of total THIC transcripts from plants incubated for 48 h under continuous light. Plants were grown for 11 days in light/dark cycles (16/8 h) on medium without thiamin or medium supplemented with 100 μM thiamin. On the morning of the 12th day, plants were transferred to continuous light and samples were taken every 3 hours. Expression was normalized to the value of the sample at time point 0 from plants grown on thiamin free medium. Error bars represent standard deviation of triplicate qRT-PCR analyses. […] (B) qRT-PCR analysis of THIC type III RNAs. Plant material and data normalization are as described for (A).
The amount of THIC transcripts was established by using quantitative RT-PCR (qRT-PCR) to address whether transcript levels respond to increased thiamin concentrations. A. thaliana seedlings were supplemented with various amounts of thiamin and the different THIC transcript types were detected using specific primer combinations. The primer combination amplifying THIC-II also can bind to a subset of THIC-I RNAs that have undergone splicing of the first 3′ UTR intron.
Arabidopsis thaliana ecotype Columbia-0 plants were grown with soil at 23° C. in a growth chamber under 16/8 h (light/dark) photoperiod with 60% humidity unless otherwise stated. For seedling experiments, plants were grown on basal MS medium (Murashige and Skoog, 1962) supplemented with 2% sucrose and varying concentrations of thiamin and under continuous light unless otherwise specified. N. benthamiana plants for leaf infiltration assays were grown on soil for 3 to 5 weeks under continuous light.

THIC transcripts [3] = settings: seedlings on thiamin-supplemented medium
Description: as §1

[4] = tested on: THIC TPP riboswitch (3' region of AtTHIC fused to EGFP)
Description: (A) Leaves from stably transformed A. thaliana lines expressing a reporter fusion of the complete 3′ region of AtTHIC fused to the 3′ end of EGFP were abscised and incubated with the petioles in water or in water supplemented with 0.02% thiamin. EGFP fluorescence was assessed at 0 h, 48 h, and 72 h after onset of treatment. One representative set of data from three repeats is shown, and the numbers identify different leaves from one transgenic line. (B) Quantitation of EGFP fluorescence of leaves depicted in (A) at three time points. The data represent average fluorescence intensity and standard deviation for each leaf. The plot also depicts average background fluorescence of WT leaves. (C) qRT-PCR analysis of total EGFP and THIC transcripts from leaves incubated for 72 h in water or 0.02% thiamin. Transcript amounts were standardized to an internal reference transcript and normalized to transcript abundance in water treated samples. Values are averages from four independent experiments using different transgenic lines and error bars represent standard deviation. (D,E) RT-PCR analysis of different 3′ UTRs of EGFP and THIC transcript types from A. thaliana reporter transformants grown in the absence of exogenous thiamin. For cDNA generation, a polyT primer, random hexamers or two different gene specific primers (binding either 221 or 882 nts downstream of the end of the aptamer) were used as indicated. The forward primers were specific for the end of the last exon of the coding region of EGFP (left) or THIC (right), whereas the reverse primer was either a polyT primer (D) or homologous to a region 221 nts downstream of the end of the aptamer (E). RT-PCR products were separated and visualized as described in the description of FIG. 2. M designates the marker lanes containing DNAs of 100 base-pair increments. No RT indicates a control reaction using the RNA without reverse transcription as a template source. I-1 and I-2 represent type I RNAs with the upstream intron following the stop codon unspliced or spliced, respectively.
(A) Secondary structure model and sequence of the WT TPP aptamer from A. thaliana genomic sequence and located in the 3′ region of THIC that was fused to EGFP (SEQ ID NOs: 32 and 33). […] (B) Quantitation of EGFP fluorescence in leaves from A. thaliana transformants expressing reporter constructs containing the WT aptamer sequence or mutated versions M2, M3 and M4. Leaves were excised and incubated with their petioles in water or 0.02% thiamin for 72 h before fluorescence analysis. Values are averages from at least three independent experiments using different transgenic lines. Error bars represent standard deviation. (C) qRT-PCR analyses of EGFP and THIC transcript amounts in A. thaliana transformants described in (B). Transcript amounts (standardized using a reference transcript) were normalized to transcript abundance in water treated samples. Values are averages from two to four independent experiments using different transgenic lines. Error bars represent standard deviation. (D,E) RT-PCR analyses of 3′ UTRs of EGFP and THIC transcripts from A. thaliana transformants with mutations M2 or M3. RT-PCR analyses were performed as described in the description of FIGS. 5D and 5E. Forward primers were homologous to the end of the last exon of the coding region of EGFP or THIC, and the reverse primer was a polyT primer (D) or complementary to a region 221 nts downstream of the end of the aptamer (E). Kbp designates kilobase pairs.

[5] = tested on: THIC promoter from A. thaliana; settings: 100 μM thiamin, 9 day old seedlings
Description: A construct consisting of a 1595 by fragment of the THIC promoter from A. thaliana was fused to the reporter gene β-glucuronidase (GUS) and transformed into A. thaliana. […] Data are mean values from three different transgenic lines and from three independent experiments. Error bars represent standard deviation.

[6] = tested on: TPP aptamer with 5' splice site region of THIC mRNA from A. thaliana; test: In-line probing of TPP aptamer with 5' flank (nts -14-261 relative to 5' splice site); format: binding, Arabidopsis thaliana; settings: 10 μM TPP
Description: (A) TPP causes changes in RNA structure near to the 5′ splice site, which is important for the formation of THIC type III RNA. For in-line probing, a 5′ ^32P-labelled RNA starting 14 nts upstream of the 5′ splice site (+1) and expanding to the 3′ end of the TPP aptamer (nucleotides-14-261) from A. thaliana was incubated in the absence (−) or presence (+) of 10 μM TPP and the resulting spontaneous cleavage products were separated by polyacrylamide gel electrophoresis. Markers are RNAs partially digested with RNase T1 (T1) or alkali (^−OH). The graph depicts the relative band intensities in the lanes indicated. (B) Base-pairing potential between the 5′ splice site region and the P4-P5 stems of the TPP aptamer (SEQ ID NOs:34-47; complementary nucleotides are shaded). Stretches of complementary nucleotides are also present in all other plant THIC mRNA sequences available. […]
In-line probing assays were conducted essentially as described previously (Sudarsan et al., 2003; Winkler et al., 2002). […] Cleavage products were resolved by denaturing 10% PAGE, visualized by PhosphorImager (GE Healthcare), and quantitated using ImageQuant software. The apparent KD value, reflecting the concentration of TPP needed to half-maximally modulate RNA structure, was determined by plotting the normalized fraction of RNA cleaved versus the logarithm of TPP concentration.

[7] = molecular target: full-length TPP aptamer from A. thaliana; settings: read-out: apparent dissociation constant (KD) of full-length aptamer for TPP; cited from earlier work
[8] = 26 h after spraying with 50 μM thiamin
[9] = four hours after spraying seedlings with 50 μM thiamin

**Q.** For `Cc1ncc(C[n+]2csc(CCO)c2C)c(N)n1` [thiamin], which “binding to the altered aptamer” value ([1]; data not shown) is on record?
**A.** The value was “does not bind”.

**Q.** And the THIC-II level (THIC transcripts [2]; [8])?
**A.** The THIC-II level was “decreased even further”.

**Q.** What about the “total THIC RNA level” value (THIC transcripts [2]; [8]) of the same molecule?
**A.** Its value is “decreased even further”.

**Q.** What about the “increase in THIC-III” value (THIC transcripts [2]; after spraying with 50 μM thiamin, early phase (4 h)) of the same molecule?
**A.** Its value is “more pronounced in the early phase”.

**Q.** And the “THIC-II amount relative to absence of added thiamin” value (THIC transcripts [2]; [9])?
**A.** The value was 50%.

**Q.** And the “total THIC RNA amount relative to absence of added thiamin” value (THIC transcripts [2]; [9])?
**A.** The value was 50%.

**Q.** And the “THIC-I transcripts copy number” value (THIC transcripts [2]; medium containing 1 mM thiamin)?
**A.** Its value is “little or no change”.

**Q.** And the THIC-II transcripts (THIC transcripts [2]; medium containing 1 mM thiamin)?
**A.** Its THIC-II transcripts is “equivalent reduction”.

**Q.** What about the “THIC-III transcripts copy number” value (THIC transcripts [2]; medium containing 1 mM thiamin) of the same molecule?
**A.** The value was “little or no change”.

**Q.** And the “circadian rhythm of THIC expression” value (THIC transcripts [2]; medium supplemented with 100 μM thiamin, continuous light 48 h)?
**A.** Its value is “not affected”.

**Q.** What about the “total amount of THIC transcripts relative to seedlings grown without thiamin supplementation” value (THIC transcripts [2]; seedlings grown on medium containing 1 mM thiamin, 14 days) of the same molecule?
**A.** The value was “approximately 20%”.

**Q.** And the “THIC-I RNA levels (Northern blot)” value (THIC transcripts [3])?
**A.** The value was “remain relatively unchanged”.

**Q.** And the “THIC-III RNA levels (Northern blot)” value (THIC transcripts [3])?
**A.** The value was “remain relatively unchanged”.

**Q.** And the “THIC-II levels (Northern blot)” value (THIC transcripts [3]; same samples as FIG. 3A)?
**A.** Its value is “decrease”.

**Q.** What about the “amount of endogenous THIC transcripts relative to control levels” value ([4]; 0.02% thiamin, 72 h, qRT-PCR) of the same molecule?
**A.** The value was “approximately 20%”.

**Q.** And the “amount of EGFP transcripts relative to control levels” value ([4]; WT construct, 0.02% thiamin, 72 h, qRT-PCR)?
**A.** Its value is “approximately 20%”.

**Q.** And the “EGFP fluorescence in leaves” value ([4]; WT construct, 0.02% thiamin, rosette stage leaves)?
**A.** Its value is “decreased”.

**Q.** And the “responsiveness of reporter to thiamin application compared to WT construct” value (from here on “responsiveness … compared to WT construct”) ([4]; mutant aptamer M2, 0.02% thiamin 72 h)?
**A.** The value was “reduced”.

**Q.** And the “responsiveness … compared to WT construct” value ([4]; mutant aptamer M3, 0.02% thiamin 72 h)?
**A.** The value was “complete loss”.

**Q.** And the “responsiveness … compared to WT construct” value ([4]; mutant aptamer M4, 0.02% thiamin 72 h)?
**A.** The value was “complete loss”.

**Q.** And the “expression of reporter gene (GUS) driven by the THIC promoter” value [5]?
**A.** Its value is “not altered”.

**Q.** What does the source list for `Cc1ncc(C[n+]2csc(CCO[P@](=O)(O)OP(=O)(O)O)c2C)c(N)n1` [TPP, thiamine pyrophosphate]?
**A.** loss in ligand-binding affinity versus full-length aptamer ([1]; altered aptamer vs full-length aptamer): more than three orders of magnitude; Kd ([1]; in-line probing, spliced aptamer of THIC-III, read-out: apparent KD of the altered aptamer for TPP): ~60 µM; TPP binding by mutant M1 of the altered aptamer ([1]; mutation M1 in type III construct): completely abolish TPP binding; TPP binding by mutant M2 of the altered aptamer ([1]; mutation M2 in type III construct): completely abolish TPP binding; structural modulation of nucleotides near the 5' splice site [6]: increase in structural flexibility; Kd [7]: ~0.05 µM
